Key:
Type in all cases: in vivo
[1] = test system: common ragweed (Ambrosia artemisiifolia L., AMBEL); assay: Post-emerge greenhouse herbicide test, phytotoxicity rating; conditions: 14 days after application
In short: (§1)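 Scores use a 0 (no damage) to 100 (complete kill) scale, taken 14 days after a foliar spray. Acetone solutions with 0.25% v/v non-ionic surfactant were applied by track sprayer at 187 l/ha and 63-1000 g ai/ha to bottom-watered 2-3 leaf plants.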

[2] = test system: soybean (Glycine max L., var. Pella 86, SOY); assay: Post-emerge greenhouse test, crop damage rating; conditions: 14 days after application
In short: as §1

[3] = test system: Johnsongrass (Sorghum halepense, SORHA); assay: Pre-emerge greenhouse herbicide test, phytotoxicity rating; conditions: 14 days after application, rating scale 0-100
In short: (§2)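 Visual 0–100 injury rating (100 = all plants dead) taken 14 days after treatment. Rates of 125–1000 g ai/ha in acetone, 187 l/ha, were sprayed onto soil one day post-sowing; pots were surface-watered to incorporate, then bottom-watered.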

[4] = test system: sicklepod (Cassia obtusifolia, CASOB); assay: as above; conditions: 14 days after application, rating scale 0-100
In short: as §2

[5] = test system: redroot pigweed (Amaranthus retroflexus, AMARE); assay: as above; conditions: 14 days after application, rating scale 0-100
In short: as §2

[6] = test system: lambsquarters (Chenopodium album, CHEAL); assay: as above; conditions: 14 days after application, rating scale 0-100
In short: as §2

[7] = test system: large crabgrass (Digitaria sanguinalis, DIGSA); assay: as above; conditions: 14 days after application, rating scale 0-100
In short: as §2

[8] = test system: ivyleaf morningglory (Ipomoea hederacea, IPOHE); assay: as above; conditions: 14 days after application, rating scale 0-100
In short: as §2

[9] = test system: common ragweed (Ambrosia artemisiifolia L., AMBEL); assay: as above; conditions: 14 days after application, rating scale 0-100
In short: as §2

[10] = test system: green foxtail (Setaria viridis, SETVI); assay: as above; conditions: 14 days after application, rating scale 0-100
In short: as §2

[11] = test system: velvetleaf (Abutilon theophrasti, ABUTH); assay: as above; conditions: 14 days after application, rating scale 0-100
In short: as §2

[12] = test system: barnyardgrass (Echinochloa crusgalli, ECHCG); assay: as above; conditions: 14 days after application, rating scale 0-100
In short: as §2

[13] = test system: Johnsongrass (Sorghum halepense, SORHA); assay: Post-emerge greenhouse herbicide test, phytotoxicity rating; conditions: 14 days after application
In short: as §1

[14] = test system: redroot pigweed (Amaranthus retroflexus, AMARE); assay: as above; conditions: 14 days after application
In short: as §1

[15] = test system: lambsquarters (Chenopodium album, CHEAL); assay: as above; conditions: 14 days after application
In short: as §1

[16] = test system: large crabgrass (Digitaria sanguinalis, DIGSA); assay: as above; conditions: 14 days after application
In short: as §1

[17] = test system: ivyleaf morningglory (Ipomoea hederacea, IPOHE); assay: as above; conditions: 14 days after application
In short: as §1

[18] = test system: green foxtail (Setaria viridis, SETVI); assay: as above; conditions: 14 days after application
In short: as §1

[19] = test system: velvetleaf (Abutilon theophrasti, ABUTH); assay: as above; conditions: 14 days after application
In short: as §1

[20] = test system: barnyardgrass (Echinochloa crusgalli, ECHCG); assay: as above; conditions: 14 days after application
In short: as §1

[21] = test system: soybean (Glycine max L., var. Pella 86, SOY); assay: Pre-emerge greenhouse test, crop damage rating; conditions: 14 days after application, rating scale 0-100
In short: as §2

[22] = test system: field corn (Zea mays L., var. Dekalb 535, CORN); assay: Post-emerge greenhouse test, crop damage rating; conditions: 14 days after application
In short: as §1

[23] = test system: upland rice (Oryza sp., var.Tebonnet, RICE); assay: Post-emerge greenhouse test, crop damage rating; conditions: 14 days after application
In short: as §1

[24] = test system: field corn (Zea mays L., var. Dekalb 535, CORN); assay: Pre-emerge greenhouse test, crop damage rating; conditions: 14 days after application, rating scale 0-100
In short: as §2

[25] = test system: upland rice (Oryza sp., var.Tebonnet, RICE); assay: Pre-emerge greenhouse test, crop damage rating; conditions: 14 days after application, rating scale 0-100
In short: as §2

Cn1nc(-c2cc(Oc3ncccc3C#N)c(Cl)cc2F)c(Cl)c1C(F)(F)F [Compound 1-3]
AMBEL phytotoxicity rating (0-100) ([1]; 63 g al/ha): 0
AMBEL phytotoxicity rating (0-100) ([1]; 500 g al/ha): 80
SOY crop damage rating (0-100) ([2]; 63 g al/ha): 30
SOY crop damage rating (0-100) ([2]; 500 g al/ha): 90
phytotoxicity rating SORHA ([3]; 125 g ai/ha): 0
phytotoxicity rating SORHA ([3]; 500 g ai/ha): 40
phytotoxicity rating CASOB ([4]; 125 g ai/ha): 0
phytotoxicity rating CASOB ([4]; 500 g ai/ha): 80
phytotoxicity rating AMARE ([5]; 125 g ai/ha): 100
phytotoxicity rating AMARE ([5]; 500 g ai/ha): 100
phytotoxicity rating CHEAL ([6]; 125 g ai/ha): 90
phytotoxicity rating CHEAL ([6]; 500 g ai/ha): 100
phytotoxicity rating DIGSA ([7]; 125 g ai/ha): 20
phytotoxicity rating DIGSA ([7]; 500 g ai/ha): 0
phytotoxicity rating IPOHE ([8]; 125 g ai/ha): 0
phytotoxicity rating IPOHE ([8]; 500 g ai/ha): 30
phytotoxicity rating AMBEL ([9]; 125 g ai/ha): 50
phytotoxicity rating AMBEL ([9]; 500 g ai/ha): 50
phytotoxicity rating SETVI ([10]; 125 g ai/ha): 95
phytotoxicity rating ABUTH ([11]; 125 g ai/ha): 20
phytotoxicity rating ABUTH ([11]; 500 g ai/ha): 0
phytotoxicity rating ECHCG ([12]; 125 g ai/ha): 0
phytotoxicity rating ECHCG ([12]; 500 g ai/ha): 100
SORHA phytotoxicity rating (0-100) ([13]; 63 g al/ha): 20
SORHA phytotoxicity rating (0-100) ([13]; 500 g al/ha): 80
AMARE phytotoxicity rating (0-100) ([14]; 63 g al/ha): 100
AMARE phytotoxicity rating (0-100) ([14]; 500 g al/ha): 100
CHEAL phytotoxicity rating (0-100) ([15]; 63 g al/ha): 95
CHEAL phytotoxicity rating (0-100) ([15]; 500 g al/ha): 100
DIGSA phytotoxicity rating (0-100) ([16]; 63 g al/ha): 0
DIGSA phytotoxicity rating (0-100) ([16]; 500 g al/ha): 80
IPOHE phytotoxicity rating (0-100) ([17]; 63 g al/ha): 90
IPOHE phytotoxicity rating (0-100) ([17]; 500 g al/ha): 10
SETVI phytotoxicity rating (0-100) ([18]; 63 g al/ha): 0
SETVI phytotoxicity rating (0-100) ([18]; 500 g al/ha): 90
ABUTH phytotoxicity rating (0-100) ([19]; 63 g al/ha): 70
ABUTH phytotoxicity rating (0-100) ([19]; 500 g al/ha): 100
ECHCG phytotoxicity rating (0-100) ([20]; 63 g al/ha): 0
ECHCG phytotoxicity rating (0-100) ([20]; 500 g al/ha): 70
crop damage rating SOY ([21]; 125 g ai/ha): 0
crop damage rating SOY ([21]; 500 g ai/ha): 95
CORN crop damage rating (0-100) ([22]; 63 g al/ha): 0
CORN crop damage rating (0-100) ([22]; 500 g al/ha): 10
RICE crop damage rating (0-100) ([23]; 63 g al/ha): 20
RICE crop damage rating (0-100) ([23]; 500 g al/ha): 70
crop damage rating CORN ([24]; 125 g ai/ha): 0
crop damage rating CORN ([24]; 500 g ai/ha): 40
crop damage rating RICE ([25]; 125 g ai/ha): 0
crop damage rating RICE ([25]; 500 g ai/ha): 30

Cn1nc(-c2cc(Oc3nc(F)c(F)cc3F)c(Cl)cc2F)c(Cl)c1C(F)(F)F [Compound 1-6]
AMBEL phytotoxicity rating (0-100) ([1]; 63 g al/ha): 0
AMBEL phytotoxicity rating (0-100) ([1]; 500 g al/ha): 90
SOY crop damage rating (0-100) ([2]; 63 g al/ha): 30
SOY crop damage rating (0-100) ([2]; 500 g al/ha): 50
phytotoxicity rating SORHA ([3]; 125 g ai/ha): 0
phytotoxicity rating SORHA ([3]; 500 g ai/ha): 90
phytotoxicity rating CASOB ([4]; 125 g ai/ha): 0
phytotoxicity rating CASOB ([4]; 500 g ai/ha): 0
phytotoxicity rating AMARE ([5]; 125 g ai/ha): 95
phytotoxicity rating AMARE ([5]; 500 g ai/ha): 99
phytotoxicity rating CHEAL ([6]; 125 g ai/ha): 40
phytotoxicity rating CHEAL ([6]; 500 g ai/ha): 100
phytotoxicity rating DIGSA ([7]; 125 g ai/ha): 20
phytotoxicity rating DIGSA ([7]; 500 g ai/ha): 10
phytotoxicity rating IPOHE ([8]; 125 g ai/ha): 30
phytotoxicity rating IPOHE ([8]; 500 g ai/ha): 99
phytotoxicity rating AMBEL ([9]; 125 g ai/ha): 100
phytotoxicity rating AMBEL ([9]; 500 g ai/ha): 99
phytotoxicity rating SETVI ([10]; 125 g ai/ha): 60
phytotoxicity rating SETVI ([10]; 500 g ai/ha): 30
phytotoxicity rating ABUTH ([11]; 125 g ai/ha): 50
phytotoxicity rating ABUTH ([11]; 500 g ai/ha): 80
phytotoxicity rating ECHCG ([12]; 125 g ai/ha): 30
phytotoxicity rating ECHCG ([12]; 500 g ai/ha): 70
SORHA phytotoxicity rating (0-100) ([13]; 63 g al/ha): 30
SORHA phytotoxicity rating (0-100) ([13]; 500 g al/ha): 70
AMARE phytotoxicity rating (0-100) ([14]; 63 g al/ha): 99
AMARE phytotoxicity rating (0-100) ([14]; 500 g al/ha): 100
CHEAL phytotoxicity rating (0-100) ([15]; 63 g al/ha): 30
CHEAL phytotoxicity rating (0-100) ([15]; 500 g al/ha): 100
DIGSA phytotoxicity rating (0-100) ([16]; 63 g al/ha): 0
IPOHE phytotoxicity rating (0-100) ([17]; 63 g al/ha): 50
IPOHE phytotoxicity rating (0-100) ([17]; 500 g al/ha): 100
SETVI phytotoxicity rating (0-100) ([18]; 63 g al/ha): 20
SETVI phytotoxicity rating (0-100) ([18]; 500 g al/ha): 60
ABUTH phytotoxicity rating (0-100) ([19]; 63 g al/ha): 50
ABUTH phytotoxicity rating (0-100) ([19]; 500 g al/ha): 100
ECHCG phytotoxicity rating (0-100) ([20]; 63 g al/ha): 20
ECHCG phytotoxicity rating (0-100) ([20]; 500 g al/ha): 70
crop damage rating SOY ([21]; 125 g ai/ha): 0
crop damage rating SOY ([21]; 500 g ai/ha): 0
CORN crop damage rating (0-100) ([22]; 63 g al/ha): 10
CORN crop damage rating (0-100) ([22]; 500 g al/ha): 10
crop damage rating CORN ([24]; 125 g ai/ha): 0
crop damage rating CORN ([24]; 500 g ai/ha): 0
crop damage rating RICE ([25]; 125 g ai/ha): 0

— patent US6479435B1, “Diaryl ethers and processes for their preparation and herbicidal and desiccant compositions containing them” (ISK Americas Incorporated, priority 1997, dated 2002)
